Consider 28 molecules from the C3SDB collision cross section collection.

The conditions of series [1]: instrument: DT, stepped-field.
The conditions of series [2]: instrument: DT, single field, calibrated with Agilent tune mix (Agilent).
For series [3] the following is noted: instrument: DT, stepped-field. The source holds these as a separate data set.

As to `CN1c2c([nH]c(N)nc2=O)NCC1CNc1ccc(C(=O)N[C@H](CCC(=O)O)C(=O)O)cc1` (stereo not given in full) [5-Methyltetrahydrofolate], the “collision cross section (N2)” value was found to be 196.99 Å² in series [1] ([M+H]+), 200.04 Å² in series [1] ([M+Na]+), 196.4 Å² in series [2] ([M+H]+) and 201.03 Å² in series [2] ([M+Na-2H]-).
For the molecule `NCCCCN=C(N)N` [Agmatine], the entries for the “collision cross section (N2)” value in series [1] ([M+H]+) and in series [2] ([M+H]+) were 129.96 Å² and 128.2 Å², respectively.
Regarding `C[C@]12CCC(=O)C=C1CC[C@@H]1[C@@H]2[C@@H](O)C[C@]2(C=O)[C@@H](C(=O)CO)CC[C@@H]12` [Aldosterone], the “collision cross section (N2)” value in series [1] ([M+H]+) was found to be 196.05 Å²; in series [1] ([M+Na]+) it was 204.09 Å²; in series [2] ([M+H]+) it was 187.7 Å²; in series [2] ([M-H]-), 181.09 Å².
On to `C[N+](C)(C)CC(=O)[O-]` [Betaine], for which the “collision cross section (N2)” value in series [1] ([M+H]+) is 121.6 Å²; in series [1] ([M+Na]+) it was 135.56 Å²; in series [2] ([M+H]+), 121.4 Å².
With `C=CC1=C(C)C(/C=c2\[nH]/c(=C\c3[nH]c(/C=C4\NC(=O)C(C)=C4C=C)c(C)c3CCC(=O)O)c(CCC(=O)O)c2C)=NC1=O` [Biliverdin], the “collision cross section (N2)” value in series [1] ([M+H]+) amounted to 246.5 Å²; in series [1] ([M+Na]+), 248.83 Å²; in series [2] ([M+Na]+), 246.7 Å²; in series [2] ([M-H]-), 242.04 Å².
As to `CCCCCCCCCCCCC=CC[C@@H](O)[C@H](CO)NC(=O)CCCCCCCCCCCCCCCCCCC` [Cer(38:01)], the “collision cross section (N2)” value in series [3] ([M+H-H2O]+) is listed as 263.93 Å².
Regarding `CCCCCCCCCCCCC=CC[C@@H](O)[C@H](CO)NC(=O)CCCCCCCCCCCCCCCCCCCCC` [Cer(40:01)], the “collision cross section (N2)” value in series [3] ([M+H-H2O]+) was found to be 269.41 Å².
Still for that read-out and setting: under `CCCCCCCCCCCCC=CC[C@@H](O)[C@H](CO)NC(=O)CCCCCCCCCCCCCCCCCCCCCC` [Cer(41:01)] stands 272.16 Å².
`CCCCCCCCCCCCC=CC[C@@H](O)[C@H](CO)NC(=O)CCCCCCCCCCCCCCCCCCCCCCC` [Cer(42:01)]: the entries for the “collision cross section (N2)” value in series [3] ([M+H-2H2O]+), in series [3] ([M+H-H2O]+) and in series [3] ([M+H]+) were 273.88 Å², 275.06 Å² and 277.56 Å², respectively.
For `CCCCCCCCCCCCC=CC[C@@H](O)[C@H](CO)NC(=O)CC=CCCCCCCCCCCCCCCCCCCCC` [Cer(42:02)], the “collision cross section (N2)” value in series [3] ([M+H-2H2O]+) was found to be 271.35 Å²; in series [3] ([M+H-H2O]+), 273.26 Å²; in series [3] ([M+H]+), 276.77 Å².
`CCCCCCCCCCCCC=CC[C@@H](O)[C@H](CO)NC(=O)CC=CCC=CCCCCCCCCCCCCCCCCC` [Cer(42:03)]: the “collision cross section (N2)” value in series [3] ([M+H-H2O]+) amounted to 271.44 Å²; in series [3] ([M+H]+) it was 275.18 Å².
Regarding `O=C(O)CCCC[C@@H]1SC[C@@H]2NC(=O)N[C@@H]21` [D-Biotin], the “collision cross section (N2)” value in series [1] ([M+H]+) is given as 154.16 Å²; in series [1] ([M+Na]+), 164.45 Å²; in series [2] ([M+H]+), 150.4 Å²; in series [2] ([M-H]-), 152.96 Å².
Consider `OC[C@H]1O[C@H](O[C@H]2[C@H](O)[C@@H](O)[C@H](O)O[C@@H]2CO)[C@H](O)[C@@H](O)[C@@H]1O` [D-Maltose], for which the “collision cross section (N2)” value in series [1] ([M+Na]+) turned out to be 179.19 Å²; in series [2] ([M+K-2H]-), 175.19 Å²; in series [2] ([M+Na]+), 178.1 Å².
For the molecule `OC[C@H]1OC(O)[C@@H](O)[C@@H](O)[C@@H]1O` (stereo partly drawn) [D-Mannose], the entries for the “collision cross section (N2)” value in series [1] ([M+Na]+) and in series [2] ([M+Na]+) were 141.82 Å² and 140.8 Å², respectively.
For the molecule `NCCc1ccc(O)c(O)c1` [Dopamine], the “collision cross section (N2)” value in series [1] ([M+H]+) amounted to 125.24 Å²; in series [2] ([M-H]-), 129.51 Å².
In the case of `CCCCCCCCCCCCCCCC(=O)N[C@@H](CO[C@@H]1O[C@H](CO)[C@@H](O)C(O)C1O)[C@H](O)CCCCCCCCCCCCCCC` (stereo not given in full) [GlcCer(34:00)], in series [3] ([M+Na]+), the “collision cross section (N2)” value amounted to 280.92 Å².
`CCCCCCCCCCCCC=CC[C@@H](O)[C@H](CO[C@@H]1O[C@H](CO)[C@@H](O)C(O)C1O)NC(=O)CCCCCCCCCCCCCCCCC` (stereo not given in full) [GlcCer(36:01)]: the “collision cross section (N2)” value was found to be 284.18 Å² in series [3] ([M+Cl]-); 279.86 Å² in series [3] ([M+H-H2O]+); 287.29 Å² in series [3] ([M+HCOO]-); 282.43 Å² in series [3] ([M+H]+); 284 Å² in series [3] ([M+Na]+).
For `CCCCCCCCCCCCC=CC[C@@H](O)[C@H](CO[C@@H]1O[C@H](CO)[C@@H](O)C(O)C1O)NC(=O)CCCCCCCCCCCCCCCCCC` (stereo not given in full) [GlcCer(37:01)], in series [3] ([M+Na]+), the “collision cross section (N2)” value is given as 287.43 Å².
For the molecule `OC[C@H]1O[C@H](OC[C@H]2OC(O)[C@H](O)[C@@H](O)[C@@H]2O)[C@H](O)[C@@H](O)[C@H]1O` (stereo not given in full) [Melibiose], the results for the “collision cross section (N2)” value in series [1] ([M+Na]+) and in series [2] ([M+Na]+) were 181.14 Å² and 176.8 Å², respectively.
Turning to `CC(=O)N[C@H]1C(O)O[C@H](CO)[C@@H](O)[C@@H]1O` (stereo partly drawn) [N-Acetyl-D-glucosamine], the “collision cross section (N2)” value is on record as 160.36 Å² in series [1] ([M+Na]+) and 147.3 Å² in series [2] ([M+H]+).
Take `CC(=O)N[C@@H](CCC(=O)O)C(=O)O` [N-Acetyl-L-glutamate]: the “collision cross section (N2)” value in series [1] ([M+H]+) came out at 139.03 Å²; in series [1] ([M+Na]+), 149.63 Å²; in series [2] ([M+Na-2H]-) it was 141 Å².
With `NC(=O)c1cccnc1` [Nicotinamide], the “collision cross section (N2)” value in series [1] ([M+H]+) worked out at 129.32 Å²; in series [1] ([M+Na]+) it was 137.3 Å²; in series [2] ([M+H]+) it was 125.3 Å².
For `CN(CC(=O)O)/C(N)=N/P(=O)(O)O` [Phosphocreatine], the “collision cross section (N2)” value in series [1] ([M+H]+) was found to be 153.77 Å²; in series [2] ([M+H]+), 144.4 Å².
For the molecule `CC(=O)[C@H]1CC[C@H]2[C@@H]3CCC4=CC(=O)CC[C@]4(C)[C@H]3CC[C@]12C` [Progesterone], the “collision cross section (N2)” value in series [1] ([M+H]+) was 186.73 Å²; in series [1] ([M+Na]+) it was 169.03 Å²; in series [2] ([M+H]+) it was 181.2 Å²; in series [2] ([M-H]-), 182.13 Å².
Regarding `CCCCC[C@H](O)/C=C/[C@@H]1[C@H]2C/C(=C/CCCC(=O)O)O[C@H]2C[C@H]1O` [Prostaglandin I2], the “collision cross section (N2)” value in series [1] ([M+H]+) was determined as 201.3 Å²; in series [1] ([M+Na]+), 196.67 Å²; in series [2] ([M+H]+) it was 198.6 Å²; in series [2] ([M-H]-) it was 186.84 Å².
Turning to `Cn1cnc2c1c(=O)[nH]c(=O)n2C` [Theobromine], the “collision cross section (N2)” value in series [1] ([M+H]+) is given as 134.37 Å²; in series [2] ([M-H]-), 135.25 Å².
Consider `Cn1c(=O)c2[nH]cnc2n(C)c1=O` [Theophylline], for which the “collision cross section (N2)” value came out at 143.06 Å² in series [1] ([M+H]+), 149.63 Å² in series [1] ([M+Na]+), 137.6 Å² in series [2] ([M+H]+) and 130.14 Å² in series [2] ([M-H]-).
Regarding `OC[C@@H](O)C(O)[C@@H](O)CO` (stereo not given in full) [Xylitol], the “collision cross section (N2)” value in series [1] ([M+Na]+) is on record as 140.79 Å²; in series [2] ([M+Na]+), 135.3 Å²; in series [2] ([M-H]-), 122.4 Å².
